Source: patent US10563205B2, “Nucleic acid aptamer AS1411 modified DNA tetrahedron and preparation method thereof” (Sichuan University, priority 2016, dated 2020)

System: tumor cells A549
Test: MTS proliferation test of tumor cells A549
Assay type: cell-based
Conditions: A549, 0-3.2 μM, 1.5 h exposure, then 48 h culture
Procedure: Plating the cultured tumor cells A549 in 96-well cell culture plates (100 μL, 5×10^4 cell/well), adding pure Adriamycin or samples with predetermined concentrations (0, 0.1 μM, 0.2 μM, 0.4 μM, 0.8 μM, 1.6 μM, 3.2 μM) into the wells respectively, culturing in a cell incubator for 1.5 h, centrifuging, removing the cell culture medium in the supernatant, adding fresh culture medium to continue culturing for 48 h, then testing the proliferation rate of the cells using a MTS reagent.

COc1cccc2c1C(=O)c1c(O)c3c(c(O)c1C2=O)C[C@@](O)(C(=O)CO)C[C@@H]3O[C@H]1C[C@H](N)[C@H](O)[C@H](C)O1 [Adriamycin]
inhibitory effect against tumor cells as the concentration increases (proliferation rate, MTS): increases gradually
